These results are taken from publication PMC10630452, “The tumor-enriched small molecule gambogic amide suppresses glioma by targeting WDR1-dependent cytoskeleton remodeling” (Signal Transduction and Targeted Therapy, 2023).

One series deals with BGC-823-SLC cells (GCSC). The series can be described thus: IC50 assay (MTS cell viability). It counts as cell-based. Conditions: 48 h. As to the method:
(§1) Four PDC lines (T12-1, T12-2, T2-4, T19-1) obtained from the Beijing Tiantan Hospital[53] and three GSC lines (GSC2, U87MG-SLC, U251-SLC) were established and verified in our previous work.[17] Two GCSC lines were kindly provided by Dr. Ran.[54] These cell lines were cultured in neurobasal medium (Gibco) containing 2% B27 (Gibco), 1% 100 × Antibiotic-Antimycotic (Gibco), 2 mmol/L L-glutamine (catalog SH30034.01, HyClone), 20 ng/mL bFGF (catalog 100-18B-50UG, PeproTech), 20 ng/mL EGF (catalog AF-100-15-100UG, PeproTech), and 10 μg/mL heparin (Sigma‒Aldrich). H1-NSCs obtained from D.Q. Pei’s laboratory (Guangzhou Institutes of Biomedicine and Health, Chinese Academy of Sciences, Guangzhou, China), were cultured in the same medium as the PDCs, with the addition of 1% N-2 supplement (Gibco, Thermo Fisher Scientific). The human astrocyte (HA) cell line was purchased from ScienCell and cultured in commercial astrocyte medium (catalog 1801, ScienCell) supplemented with 1% AGS (ScienCell), 2% FBS (ScienCell) and 1% P/S solution (ScienCell). Regarding the GC cell lines, U87MG cells were purchased from the American Type Culture Collection (ATCC), and U251 cells were purchased from the Cell Center of Peking Union Medical College. The GC cells were cultured in DMEM (Gibco) supplemented with 10% FBS (ScienCell) and 1% 100 × Antibiotic-Antimycotic.
(§2) Cells were seeded in 96-well plates and treated with 0, 0.03, 0.1, 0.3, 1, 3, 10, or 30 μM GA-amide (Santa Cruz) in triplicate. After 48 h of incubation, cell viability was quantified using the MTS assay, and the GA-amide cytotoxicity curve was estimated using GraphPad Prism.

Another series concerns GSC2 cells (GSC). The series can be described thus: IC50 assay (MTS cell viability). It counts as cell-based. Conditions: 48 h. The procedure:
as §1, §2

In another series the test system is H1P56NSC (H1-NSCs). In words: IC50 assay (MTS cell viability). It counts as cell-based. Conditions: Homo sapiens, normal cells (NC), 48 h. As to the method:
as §1, §2

The subject of series [1] is HA (human astrocyte) cells. In words: IC50 assay (MTS cell viability). It is filed as cell-based. Conditions: normal cells (NC), 48 h. As to the method:
as §1, §2

The next series concerns SNU5-SLC cells (GCSC). The series can be described thus: IC50 assay (MTS cell viability). It is filed as cell-based. The conditions noted are these: 48 h. The procedure: as §1, §2
In another series the test system is T12-1 cells (PDC). The series can be described thus: IC50 assay (MTS cell viability). It is filed as cell-based. Conditions: Homo sapiens, T12-1, PDC, 48 h. The procedure:
as §1, §2

The test system of the next series is T12-2 cells (PDC). In words: IC50 assay (MTS cell viability). It counts as cell-based. The conditions noted are these: Homo sapiens, T12-2, PDC, 48 h. As to the method:
as §1, §2

Another series relates to T19-1 cells (PDC). In words: IC50 assay (MTS cell viability). It counts as cell-based. Conditions: Homo sapiens, T19-1, PDC, 48 h. The procedure: as §1, §2
For another series, the system named is T2-4 cells (PDC). The series can be described thus: IC50 assay (MTS cell viability). It counts as cell-based. The conditions noted are these: Homo sapiens, T2-4, PDC, 48 h. The procedure: as §1, §2
In the next series the test system is U251 cells (GC). The series can be described thus: IC50 assay (MTS cell viability). The conditions noted are these: Homo sapiens, U-251, 48 h. It is filed as cell-based. The procedure:
as §1, §2

Another series relates to U251-SLC cells (GSC). The series can be described thus: IC50 assay (MTS cell viability). The conditions noted are these: 48 h. It is filed as cell-based. As to the method:
as §1, §2

For another series, the system named is U87MG cells (GC). The series can be described thus: IC50 assay (MTS cell viability). The conditions noted are these: Homo sapiens, U-87 MG, 48 h. It counts as cell-based. As to the method:
as §1, §2

In the next series the test system is U87MG-SLC cells (GSC). In words: IC50 assay (MTS cell viability). It is filed as cell-based. The conditions noted are these: 48 h. The procedure: as §1, §2
The subject of a further series is PDCs. In words: Tumor sphere formation assay. It is filed as cell-based, human. As to the method: For the tumor sphere formation assay, cells were inoculated in 96-well plates at 600 cells/well in a volume of 100 μL. The tumor spheres with a diameter of 50–100 μm and a diameter of over 100 μm were counted separately under a microscope after 14 days. For the limiting dilution assay, cells were dissociated to generate a single-cell suspension, which was diluted along a gradient for seeding in a 96-well plate at concentrations ranging from 400 cells to 25 cells in a volume of 100 μL per well.

Series [2] can be described thus: Acute toxicity assay, body weight. It counts as in vivo, mice. Conditions: low dose 1 mg/kg, high dose 10 mg/kg, one-time i.v. The procedure:
a Hematoxylin and eosin staining of sections from control and GA-amide-treated livers, kidney and small intestines, scale bars were shown in the panel. b Persistent records of the body weights and the statistical results of the body weight changes after one-time i.v. treatments of control (DMSO), 1 mg/kg GA-amide and 10 mg/kg GA-amide (n = 6, for control and 1mg/kg GA-amide; n = 5, for 10mg/kg GA-amide) were shown.

Series [3] relates to WDR1 deficient U87MG-SLC cells. In words: sgWDR1 U87MG-SLC subcutaneous xenograft. Conditions: 2 mg/kg i.p. once daily for 10 days. It counts as in vivo, nude mice.
In a further series the test system is F-actin. In words: F-actin staining and G-actin/F-actin assay in T2-4 cells. It counts as cell-based. Conditions: 0.3 μM, 4 h, 8 h and 12 h. As to the method:
F-actin isolation was performed according to the instructions of the G-actin/F-actin assay (Cytoskeleton, Inc.). Briefly, cells were lysed in LAS2 buffer (Cytoskeleton, Inc.). The lysates were centrifuged (5 min at 1000 rpm) to pellet undisrupted cells, and then 100 µl of the supernatant was ultracentrifuged at 37 °C (100,000 × g) for 1 h to separate F-actin from soluble G-actin. The F-actin pellet was solubilized by incubation in 100 μL of F-actin depolymerization buffer for 1 h. The soluble F-actin and G-actin fractions were subsequently analyzed by immunoblotting with a mouse monoclonal anti-actin antibody (Cytoskeleton, Inc.).
Representative images of three wells are shown, and the scale bar represents 500 μm. h The apoptosis assay was conducted on T2-4 cells treated with DMSO, GA-amide (0.3 μM), jas (50 nM), and jas (50 nM jas was pretreated for 12 hours) in combination with GA-amide (0.3 μM) for 4 hours. The data were presented as the mean ± SEM (n = 3) and analyzed using one-way ANOVA analysis. Statistical significance is denoted as *P <0.05, **P <0.01, and ***P <0.001.

In a further series the test system is infarct. The conditions noted are these: subcutaneous injection of 2 mg/kg; cited from earlier work.

The term IC50 denotes the point on the concentration scale where inhibition reaches its midpoint. A low value points to greater potency in that assay. `CC(C)=CCC[C@]1(C)C=Cc2c(O)c3c(c(CC=C(C)C)c2O1)O[C@]12C(=C[C@@H]4CC1C(C)(C)O[C@@]2(C/C=C(/C)C(N)=O)C4=O)C3=O` [GA-amide, gambogic amide]: the IC50 with BGC-823-SLC cells (GCSC) worked out at 870 nM; in the series on GSC2 cells (GSC) it was 133 nM; in the series on H1P56NSC (H1-NSCs), 941 nM; in series [1] it was 1030 nM; in the series on SNU5-SLC cells (GCSC) it was 962 nM; with T12-1 cells (PDC), 249 nM. The IC50 is 286 nM in the series on T12-2 cells (PDC); 277 nM with T19-1 cells (PDC); 167 nM in the series on T2-4 cells (PDC); 168 nM with U251 cells (GC); 214 nM with U251-SLC cells (GSC); 231 nM with U87MG cells (GC). The same compound returned an IC50 in the series with U87MG-SLC cells (GSC) of 399 nM. Moreover, the “tertiary tumor sphere formation” value with PDCs (T2-4 and T12-2, cells from secondary spheres pretreated 4 h) is reported as “still suppressed”. The “secondary tumor sphere formation potential” value in the series with PDCs (pretreatment 4 h with 0.3 μM, 1 μM and 3 μM) is given as “completely abolished”. In series [2], the “body weight after a single injection” value was “did not change the body weight”. In addition, the “tumor growth of WDR1 deficient xenograft” value in series [3] was “could not inhibit the tumor growth”. The F-actin content result with F-actin was “decreased content of F-actin at the cell edge”. The infarct volume entry in the series with infarct was “significantly reduce the infarct volume”.
